What was measured:
human Plasma Kallikrein = human Plasma Kallikrein (Homo sapiens (Human), UniProt P03952); assay: In vitro enzyme inhibition of human plasma kallikrein (PFR-AMC cleavage); format: biochemical; conditions: human plasma kallikrein, Pro-Phe-Arg-AMC substrate, 37° C.; read-out: hPK IC50
How it was run: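 Compound pre-incubated with human plasma kallikrein 5 min at 37° C in 50 mM Tris-HCl pH 7.5, 150 mM NaCl, 0.01% Triton X-100. Reaction started with PFR-AMC, cleavage read kinetically at 37° C every 43 s for 1 h.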

kallikrein = kallikrein (Homo sapiens (Human), UniProt P03952); assay: In vitro cellular assay (contact assay): kallikrein activity in ellagic acid-activated human plasma, substrate Z-FR-2-AMC; format: biochemical; conditions: human plasma activated with ellagic acid, Z-FR-2-AMC substrate, 37° C.; read-out: Contact Assay EC50
Procedure: The ability of the compounds disclosed herein to inhibit cellular kallikrein activity was quantified and the respective EC50 value was determined.
All dilutions were prepared in an assay buffer comprising 50 mM Tris-HCl pH 7.2, 150 mM NaCl, and 0.01% Triton X-100.
The ten solutions of the test compounds, prepared by serial dilution, were further diluted 50-fold in the assay buffer.
Human plasma is thawed on ice and centrifuged for 15 min at 4° C. to remove platelets. A 1 mM stock solution of ellagic acid is diluted to 8 μM and mixed with human plasma, after removing platelets, at a ratio of 1:0.8.
A 22.5 μL volume of the final mixture of human plasma and ellagic acid was added to a 96-well microwell plate and the plate was incubated for 15 min at 37° C.
The CINH inhibitor at various concentrations, prepared by serial dilutions as described above, were added to the inhibitor control wells. […] Each CINH concentration is tested in duplicates.
The test compounds at various concentrations, also prepared by serial dilutions as described above, are added to the test wells. […] Each test compound concentration was tested in duplicates.
In addition to the inhibitor control and test wells, the 96 well assay plate includes positive control wells which contained the mixture of human plasma and ellagic acid without C1NH inhibitor or test compounds, and background wells which contained neither the mixture of human plasma and ellagic acid nor the test compounds. The total volume of liquid in positive control and background wells was brought up to 35 μL, using the assay buffer.
The assay plate containing C1NH inhibitors and test compounds mixed with human plasma and ellagic acid and appropriate controls was incubated at 37° C. for 5 min. […] The reagents were mixed well by shaking the plate gently for 30 sec.
The enzyme reaction was quantified by immediate kinetic reading of the assay plate using excitation/emission wavelengths of 330 nm/440 nm respectively. Fluorescence intensity was recorded for 60 min, using a time interval of 43 sec.
The inhibition activity of the test compounds were evaluated using the IC50 values, calculated according to the dose-response curve of the test compounds, fitted using the “log(inhibitor)-response (variable slope)” equation in GraphPadPrism software (GraphPad Software, Inc.).
The percentage inhibition was calculated using the following equation:
[formula] where, Mean(BG) is the average value of the fluorescence intensity of the background wells and Mean(PC) is the average value of the fluorescence intensity of the positive control wells.
Table 4 provides the EC50 values of various compounds disclosed herein.

Sequence of human Plasma Kallikrein (P03952 20-638): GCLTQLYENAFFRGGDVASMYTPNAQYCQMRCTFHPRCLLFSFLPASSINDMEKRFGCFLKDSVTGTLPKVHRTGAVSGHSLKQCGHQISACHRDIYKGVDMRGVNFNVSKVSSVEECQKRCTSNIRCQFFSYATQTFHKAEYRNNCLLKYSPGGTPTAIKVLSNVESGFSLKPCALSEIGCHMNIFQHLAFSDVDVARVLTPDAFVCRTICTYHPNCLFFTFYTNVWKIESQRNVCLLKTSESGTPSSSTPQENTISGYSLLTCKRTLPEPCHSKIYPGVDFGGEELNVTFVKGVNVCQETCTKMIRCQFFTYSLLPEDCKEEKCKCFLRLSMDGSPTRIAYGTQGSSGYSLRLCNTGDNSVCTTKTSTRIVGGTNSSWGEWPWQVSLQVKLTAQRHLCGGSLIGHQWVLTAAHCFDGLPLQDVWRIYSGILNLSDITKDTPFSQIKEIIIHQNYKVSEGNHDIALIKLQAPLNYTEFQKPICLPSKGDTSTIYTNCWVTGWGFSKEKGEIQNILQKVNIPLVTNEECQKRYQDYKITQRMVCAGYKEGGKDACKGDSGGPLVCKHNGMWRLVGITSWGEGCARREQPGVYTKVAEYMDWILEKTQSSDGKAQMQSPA
Sequence of kallikrein (P03952 20-638): as above

Row | Structure (SMILES) | IC50 (human Plasma Kallikrein) | EC50 (kallikrein)
1 | Cc1cnc2c(C#N)cc(Cc3cc(C(=O)NCc4cc5c(Cl)c[nH]c5cc4F)ccn3)cc2c1 [Example 72, N-((3-chloro-6-fluoro-1H-indol-5-yl)methyl)-2-((8-cyano-3-methylquinolin-6-yl)methyl)isonicotinamide] | < 100 nM | 100 to 1000 nM
2 | Cc1cnc2c(C(N)=O)cc(Cc3cc(C(=O)NCc4cc5cc[nH]c5cc4F)ccn3)cc2c1 [Example 83, 6-((4-(((6-fluoro-1H-indol-5-yl)methyl)carbamoyl)pyridin-2-yl)methyl)-3-methylquinoline-8-carboxamide] | < 100 nM | 100 to 1000 nM
3 | Cc1cnc2c(C(N)=O)cc(Cc3cc(C(=O)NCc4ccc5c(N)nccc5c4)ccn3)cc2c1 [Example 79, 6-((4-(((1-aminoisoquinolin-6-yl)methyl)carbamoyl)pyridin-2-yl)methyl)-3-methylquinoline-8-carboxamide] | < 100 nM | < 100 nM
4 | Cc1nc(N)ccc1CNC(=O)c1ccnc(Cc2cc(C(N)=O)c3ncc(Cl)cc3c2)c1 [Example 62, 6-((4-(((6-amino-2-methylpyridin-3-yl)methyl)carbamoyl)pyridin-2-yl)methyl)-3-chloroquinoline-8-carboxamide] | < 100 nM | < 100 nM
5 | Cc1cnc2c(S(C)(=O)=O)cc(Cc3cc(C(=O)NCc4ccc5[nH]cc(Cl)c5c4F)ccn3)cc2c1 [Example 21, N-((3-chloro-4-fluoro-1H-indol-5-yl)methyl)-2-((3-methyl-8-(methylsulfonyl)quinolin-6-yl)methyl)isonicotinamide] | < 100 nM | < 100 nM
6 | Cc1ccc2cc(Cc3cc(C(=O)NCc4ccc5c(N)nccc5c4)ccn3)ccc2n1 [Example 111, N-((1-aminoisoquinolin-6-yl)methyl)-2-((2-methylquinolin-6-yl)methyl)isonicotinamide] | < 100 nM | 100 to 1000 nM
7 | Cc1cnc2c(S(C)(=O)=O)cc(Cc3cc(C(=O)NCc4cc5cc[nH]c5cc4F)ccn3)cc2c1 [Example 18, N-((6-fluoro-1H-indol-5-yl)methyl)-2-((3-methyl-8-(methylsulfonyl)quinolin-6-yl)methyl)isonicotinamide] | < 100 nM | 100 to 1000 nM
8 | Cc1cc(N)nc(C)c1CNC(=O)c1ccnc(Cc2cc(F)c3ncc(Cl)cc3c2)c1 [Example 89, N-(6-amino-2,4-dimethyl-pyridin-3-ylmethyl)-2-(3-chloro-8-fluoro-quinolin-6-ylmethyl)-isonicotinamide] | < 100 nM | < 100 nM
9 | Cc1nc(N)ccc1CNC(=O)c1ccnc(Cc2cc(S(C)(=O)=O)c3ncc(Cl)cc3c2)c1 [Example 69, N-((6-amino-2-methylpyridin-3-yl)methyl)-2-((3-chloro-8-(methylsulfonyl)quinolin-6-yl)methyl)isonicotinamide] | < 100 nM | < 100 nM
10 | NC(=O)c1cc(Cc2cc(C(=O)NCc3cc4c(Cl)c[nH]c4cc3F)ccn2)cc2cc(Cl)cnc12 [Example 59, 3-chloro-6-((4-(((3-chloro-6-fluoro-1H-indol-5-yl)methyl)carbamoyl)pyridin-2-yl)methyl)quinoline-8-carboxamide] | < 100 nM | 100 to 1000 nM
11 | Cc1cnc2c(S(C)(=O)=O)cc(Cc3cc(C(=O)NCc4c(C)cc(N)nc4C)ccn3)cc2c1 [Example 15, N-((6-amino-2,4-dimethylpyridin-3-yl)methyl)-2-((3-methyl-8-(methylsulfonyl)quinolin-6-yl)methyl)isonicotinamide] | < 100 nM | < 100 nM
12 | Cc1cnc2c(C(N)=O)cc(Cc3cc(C(=O)NCc4n[nH]c5ccc(Cl)cc45)ccn3)cc2c1 [Example 82, 6-((4-(((5-chloro-1H-indazol-3-yl)methyl)carbamoyl)pyridin-2-yl)methyl)-3-methylquinoline-8-carboxamide] | < 100 nM | 100 to 1000 nM
13 | O=C(NCc1ccc2[nH]cc(Cl)c2c1F)c1ccnc(Cc2ccc3ncc(Cl)cc3c2)c1 [Example 40, N-(3-Chloro-4-fluoro-1H-indol-5-ylmethyl)-2-(3-chloro-quinolin-6-ylmethyl)-isonicotinamide] | < 100 nM | 100 to 1000 nM

From patent publication US9611252B2 (LifeSci Pharmaceuticals, Inc., priority 2013, dated 2017)
